Measured values from patent US20120165310A1, “ETHER DERIVATIVES OF BICYCLIC HETEROARYLS” (NOVARTIS AG, priority 2009, published 2012).

What follows are molecules tested against T1, IGF-1R (Homo sapiens, UniProt P08069) (assay: Cellular IGF-1R assay: capture ELISA (MSD) of receptor phosphorylation in Hek293 cells). Conditions: Hek293-IGF1R cells, 1 h pre-incubation, 10 min IGF stimulation, pIGF1R capture ELISA.
T1 construct: expressed in transfected cells; host or cells: Hek293 (Hek293-IGF1R)
Assay type: cell-based
Experimental: (§1) In this assay the activity of the compounds of the invention against Insulin-like growth factor I (IGF-I) induced autophosphorylation of the IGF-IR was determined. The assay was conducted as follows: Compound-mediated inhibition of IGF1R and INSR phosphorylation in Hek293 cells transduced with the corresponding receptors was assessed in a capture ELISA format using the MSD (Meso Scale Discovery) platform. Briefly, 30,000 cells washed and diluted in starvation medium (DMEM high glucose supplemented with 0.1% BSA) were seeded in 90 μL per well into 96-well plates pre-coated with poly-D-lysine (0.1 mg/mL in PBS/O). After 24 h incubation at 37° C. and 5% CO2, dose-response effects were determined with 3-fold serial compound dilutions, starting at 10 μM. The final vehicle concentration is 0.1% DMSO in all wells. Following pre-incubation with compounds for 1 h, receptor phosphorylation was triggered by a 10 min exposure to 1.0 ng/μL IGF for Hek293-IGF1R cells, and 5.0 ng/μL insulin for Hek293-InsR cells. Cell lysis was achieved by addition of 80 μL MSD lysis buffer per aspirated well, incubation on ice for 20 min, and a freeze-thaw cycle. Target phosphorylation was then assessed by transferring volumes corresponding to approx. 6 μg Hek293-IGF1R or 0.6 μg Hek293-InsR lysates to MSD assay plates pre-coated with total-IGF1R or total-InsR Abs, respectively. […] Immune complexes were detected by a SULFO-Tag™-coupled anti-rabbit IgG antibody in the presence of 150 μL MSD read-buffer. Light emission at 620 nm triggered by application of electric current was recorded on a MSD Sectorlmager 6000. Acquired raw data (mean Ru-ECL units) were processed in an Excel analysis template. The plate blank (MSD lysis buffer) was subtracted from all data points. The effect of a particular test compound concentration on receptor phosphorylation was expressed relative to the window defined by ligand-stimulated vs unstimulated control cells (set as 100%). IC50 values [nM] were determined using 4-parametric curve-fitting (XLfit software, V4.3.2).
as §1, with “Compound-mediated” for “In this assay the activity of the compounds of the invention against Insulin-like growth factor I (IGF-I) induced autophosphorylation of the IGF-IR was determined. The assay was conducted as follows: Compound-mediated”, “cells trans-duced” for “cells transduced”, “receptors were” for “receptors was”, “concentration was” for “concentration is”, “for Hek293-IGF1 R” for “for Hek293-IGF1R”, “with total-IGF1 R” for “with total-IGF1R”

T1 sequence (P08069 31-1367): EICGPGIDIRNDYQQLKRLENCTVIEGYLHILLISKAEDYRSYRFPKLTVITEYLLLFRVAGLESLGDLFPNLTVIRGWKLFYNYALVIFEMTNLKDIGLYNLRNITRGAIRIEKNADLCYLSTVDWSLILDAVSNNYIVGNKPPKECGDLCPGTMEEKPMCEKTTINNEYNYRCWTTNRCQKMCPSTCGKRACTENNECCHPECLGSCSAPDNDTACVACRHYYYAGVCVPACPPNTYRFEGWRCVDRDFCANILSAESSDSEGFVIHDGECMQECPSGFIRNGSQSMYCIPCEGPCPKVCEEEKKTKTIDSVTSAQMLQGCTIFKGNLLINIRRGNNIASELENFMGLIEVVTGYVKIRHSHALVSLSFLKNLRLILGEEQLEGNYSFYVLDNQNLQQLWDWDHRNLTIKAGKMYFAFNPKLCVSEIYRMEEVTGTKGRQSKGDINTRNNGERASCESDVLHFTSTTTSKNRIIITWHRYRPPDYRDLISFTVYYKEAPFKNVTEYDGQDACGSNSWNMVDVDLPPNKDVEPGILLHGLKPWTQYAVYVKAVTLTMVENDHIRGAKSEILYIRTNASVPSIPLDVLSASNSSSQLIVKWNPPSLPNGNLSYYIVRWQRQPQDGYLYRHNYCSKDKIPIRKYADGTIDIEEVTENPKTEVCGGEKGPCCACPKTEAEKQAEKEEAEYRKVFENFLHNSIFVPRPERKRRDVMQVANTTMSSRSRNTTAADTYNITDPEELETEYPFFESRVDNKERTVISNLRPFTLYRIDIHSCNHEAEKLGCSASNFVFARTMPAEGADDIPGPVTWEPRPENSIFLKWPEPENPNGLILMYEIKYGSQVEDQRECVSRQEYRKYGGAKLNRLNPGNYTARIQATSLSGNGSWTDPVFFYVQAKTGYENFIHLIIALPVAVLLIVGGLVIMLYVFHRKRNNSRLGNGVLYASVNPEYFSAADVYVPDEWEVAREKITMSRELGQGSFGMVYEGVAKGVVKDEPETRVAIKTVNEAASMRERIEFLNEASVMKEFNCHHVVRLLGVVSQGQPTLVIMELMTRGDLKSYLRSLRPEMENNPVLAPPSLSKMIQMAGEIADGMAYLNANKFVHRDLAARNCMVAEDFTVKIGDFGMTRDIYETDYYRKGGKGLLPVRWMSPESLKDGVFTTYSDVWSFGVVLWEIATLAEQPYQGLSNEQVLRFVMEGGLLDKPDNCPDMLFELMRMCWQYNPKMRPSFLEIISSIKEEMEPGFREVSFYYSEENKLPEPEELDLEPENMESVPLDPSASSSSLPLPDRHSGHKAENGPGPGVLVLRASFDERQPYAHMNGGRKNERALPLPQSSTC

IC50 [nM]	SMILES
83	Cc1cccc(NC[C@H]2C[C@@H](n3cc(-c4cccc(OCC56CCC(CC5)O6)c4)c4c(N)ncnc43)C2)n1 (relative stereo) [Example 194, 7-{cis-3-[(6-Methyl-pyridin-2-ylamino)-methyl]-cyclobutyl}-5-[3-(7-oxa-bicyclo[2.2.1]hept-1-ylmethoxy)-phenyl]-7H-pyrrolo[2,3-d]pyrimidin-4-ylamine]
182	CC(=O)N1CC2CC1CN2[C@H]1C[C@@H](n2cc(-c3cccc(OCC45CCC(CC4)O5)c3)c3c(N)ncnc32)C1 (relative stereo) [Example 173, 1-[5-(cis-3-{4-amino-5-[3-(7-oxa-bicyclo[2.2.1]hept-1-ylmethoxy)-phenyl]-pyrrolo[2,3-d]pyrimidin-7-yl}-cyclobutyl)-2,5-diaza-bicyclo[2.2.1]hept-2-yl]-ethanone]
312	NC(=O)[C@H]1CCCN1CC1(O)CC(n2cc(-c3cccc(OCC45CCC(CC4)O5)c3)c3c(N)ncnc32)C1 (stereo partly drawn) [Example 212, (R)-(E)-1-(3-{4-Amino-5-[3-(7-oxa-bicyclo[2.2.1]hept-1-ylmethoxy)-phenyl]-pyrrolo[2,3-d]pyrimidin-7-yl}-1-hydroxy-cyclobutylmethyl)-pyrrolidine-2-carboxylic acid amide]
45	Nc1ncnc2c1c(-c1cccc(OCC34CCC(CC3)O4)c1)cn2[C@H]1CC[C@@H](CN2CCOCC2)CC1 [Example 130]
15	CC1(C)CCC(COc2cccc(-c3cn(C4CC(CN5CCC(O)C5)C4)c4ncnc(N)c34)c2)O1 [Example 57, (S)-1-(3-{4-amino-5-[3-(5,5-dimethyl-tetrahydro-furan-2-ylmethoxy)-phenyl]-5 pyrrolo[2,3-d]pyrimidin-7-yl}-cyclobutylmethyl)-pyrrolidin-3-ol]
138	Nc1ncnc2c1c(-c1cccc(OCC34CCC(CC3)O4)c1)cn2[C@H]1C[C@@H](N2CC(O)C2)C1 (relative stereo) [Example 191, 1-(cis-3-{4-Amino-5-[3-(7-oxa-bicyclo[2.2.1]hept-1-ylmethoxy)-phenyl]-pyrrolo[2,3-d]pyrimidin-7-yl}-cyclobutyl)-azetidin-3-ol]
41	CC1(C)CCC(COc2cccc(-c3cn([C@H]4C[C@@H](CN5CC(O)C5)C4)c4ncnc(N)c34)c2)O1 (relative stereo) [Example 41, 1-(cis-3-{4-amino-5-[3-(5,5-dimethyl-tetrahydro-furan-2-ylmethoxy)-phenyl]-pyrrolo[2,3-d]pyrimidin-7-yl}-cyclobutylmethyl)-azetidin-3-ol]
14	Nc1ncnc2c1c(-c1cccc(OCC34CCC(CC3)O4)c1)cn2[C@H]1C[C@@](O)(CN2CCS(=O)(=O)CC2)C1 [Example 205, (E)-3-{4-Amino-5-[3-(7-oxa-bicyclo[2.2.1]hept-1-ylmethoxy)-phenyl]-pyrrolo[2,3-d]pyrimidin-7-yl}-1-(1,1-dioxo-1lambda*6*-thiomorpholin-4-ylmethyl)-cyclobutanol]
18	Nc1ncnc2c1c(-c1cccc(OCC34CCC(CC3)O4)c1)cn2[C@H]1C[C@@H](CN2CC[C@@H](O)C2)C1 [Example 214, (R)-1-(cis-3-{4-Amino-5-[3-(7-oxa-bicyclo[2.2.1]hept-1-ylmethoxy)-phenyl]-pyrrolo[2,3-d]pyrimidin-7-yl}-cyclobutylmethyl)-pyrrolidin-3-ol]
316	Nc1ncnc2c1c(-c1cccc(OCC3CCCO3)c1)cn2[C@H]1C[C@H](CN2CCS(=O)(=O)CC2)C1 (relative stereo) [Example 89, 7-[trans-3-(1,1-Dioxothiomorpholin-4-ylmethyl)-cyclobutyl]-5-[3-(tetrahydro-furan-2-ylmethoxy)-phenyl]-7H-pyrrolo[2,3-d]pyrimidin-4-ylamine]
88	CN(C)[C@H]1CC[C@H](n2cc(-c3cccc(OCC45CCC(CC4)O5)c3)c3c(N)ncnc32)CC1 (relative stereo) [Example 183, 7-(trans-4-Dimethylamino-cyclohexyl)-5-[3-(7-oxa-bicyclo[2.2.1]hept-1-ylmethoxy)-phenyl]-7H-pyrrolo[2,3-d]pyrimidin-4-ylamine]
80	CN1CCC(N2CC[C@@H](n3cc(-c4cccc(OCC56CCC(CC5)O6)c4)c4c(N)ncnc43)C2)CC1 [Example 216, 7-[(R)-1-(1-Methyl-piperidin-4-yl)-pyrrolidin-3-yl]-5-[3-(7-oxa-bicyclo[2.2.1]hept-1-ylmethoxy)-phenyl]-7H-pyrrolo[2,3-d]pyrimidin-4-ylannine]
309	Nc1ncnc2c1c(-c1cccc(OCC3CCCCO3)c1)cn2[C@H]1C[C@@H](CN2CCC(F)CC2)C1 (relative stereo) [Example 32, 7-[cis-3-(4-fluoro-piperidin-1-ylmethyl)-cyclobutyl]-5-[3-(tetrahydro-pyran-2-ylmethoxy)-phenyl]-7H-pyrrolo[2,3-d]pyrimidin-4-ylamine]
24	NC[C@H]1C[C@@H](n2cc(-c3cccc(OCC45CCC(CC4)O5)c3)c3c(N)ncnc32)C1 (relative stereo) [Example 160, 7-[cis-3-aminomethyl-cyclobutyl]-5-[3-(7-oxa-bicyclo[2.2.1]hept-1-ylmethoxy)-phenyl]-7H-pyrrolo[2,3-d]pyrimidin-4-ylamine]
85	NC(=O)C1CC(F)CN1CC1CC(n2cc(-c3cccc(OCC4CCCCO4)c3)c3c(N)ncnc32)C1 [Example 94, (2S,4R)-1-(((1 S,3R)-3-(4-amino-5-(3-((tetrahydro-2H-pyran-2-yl)methoxy)phenyl)-7H-pyrrolo[2,3-d]pyrimidin-7-yl)cyclobutyl)methyl)-4-fluoropyrrolidine-2-carboxamide]
276	NC(=O)[C@@H]1CCCN1C[C@H]1C[C@H](n2cc(-c3cccc(OCC4CCCCO4)c3)c3c(N)ncnc32)C1 (stereo partly drawn) [Example 38, (S)-1-(trans-3-{4-amino-5-[3-(tetrahydro-pyran-2-ylmethoxy)-phenyl]-pyrrolo[2,3-d]pyrimidin-7-yl}-cyclobutylmethyl)-pyrrolidine-2-carboxylic acid amide]
281	CSC[C@H]1C[C@@H](n2cc(-c3cccc(OC[C@H]4CCCCO4)c3)c3c(N)ncnc32)C1 (relative stereo) [Example 152, 7-(cis-3-methylsuphanylmethyl-cyclobutyl)-5-{3-[(R)-1-(tetrahydro-pyran-2-yl)methoxy]-phenyl}-7H-pyrrolo[2,3-d]pyrimidin-4-ylamine]
35	CC1(C)CCC(COc2cccc(-c3cn(C4CC(CN5CCC(F)C5)C4)c4ncnc(N)c34)c2)O1 (single isomer, unassigned) [Example 45]
157	NC(=O)[C@H]1CCCN1C[C@H]1C[C@@H](n2cc(-c3cccc(OCC4CCCO4)c3)c3c(N)ncnc32)C1 (stereo partly drawn) [Example 81, (R)-1-(cis-3-{4-amino-5-[3-(tetrahydro-furan-2-ylmethoxy)-phenyl]-pyrrolo[2,3-d]pyrimidin-7-yl}-cyclobutylmethyl)-pyrrolidine-2-carboxylic acid amide]
47	CN1CCN([C@H]2C[C@@H](c3nc(-c4cccc(OCC56CCC(CC5)O6)c4)c4c(N)nccn43)C2)CC1 [Example 181]
8	CC1(C)CCC(COc2cccc(-c3cn([C@H]4C[C@@H](CN5CCC[C@H]5C(N)=O)C4)c4ncnc(N)c34)c2)O1 (stereo partly drawn) [Example 50, (S)-1-(cis-3-{4-amino-5-[3-(5,5-dimethyl-tetrahydro-furan-2-ylmethoxy)-phenyl]-pyrrolo[2,3-d]pyrimidin-7-yl}-cyclobutylmethyl)-pyrrolidine-2-carboxylic acid amide]
